Laboratory results reported in patent publication US20080261994A1, “CYCLOPROPANE COMPOUNDS AND PHARMACEUTICAL USE THEREOF” (Japan Tobacco Inc., priority 2003, published 2008).
Where two headings read alike, the source gives them in different places.

Key:
Format in all cases: biochemical
aggrecanase-1 = biological target: T1, aggrecanase-1 (Homo sapiens, UniProt O75173); test: Aggrecanase-1 inhibitory action (Particle Assay, GAG release from aggrecan-containing polyacrylamide particles)
T1 sequence (O75173 213-837): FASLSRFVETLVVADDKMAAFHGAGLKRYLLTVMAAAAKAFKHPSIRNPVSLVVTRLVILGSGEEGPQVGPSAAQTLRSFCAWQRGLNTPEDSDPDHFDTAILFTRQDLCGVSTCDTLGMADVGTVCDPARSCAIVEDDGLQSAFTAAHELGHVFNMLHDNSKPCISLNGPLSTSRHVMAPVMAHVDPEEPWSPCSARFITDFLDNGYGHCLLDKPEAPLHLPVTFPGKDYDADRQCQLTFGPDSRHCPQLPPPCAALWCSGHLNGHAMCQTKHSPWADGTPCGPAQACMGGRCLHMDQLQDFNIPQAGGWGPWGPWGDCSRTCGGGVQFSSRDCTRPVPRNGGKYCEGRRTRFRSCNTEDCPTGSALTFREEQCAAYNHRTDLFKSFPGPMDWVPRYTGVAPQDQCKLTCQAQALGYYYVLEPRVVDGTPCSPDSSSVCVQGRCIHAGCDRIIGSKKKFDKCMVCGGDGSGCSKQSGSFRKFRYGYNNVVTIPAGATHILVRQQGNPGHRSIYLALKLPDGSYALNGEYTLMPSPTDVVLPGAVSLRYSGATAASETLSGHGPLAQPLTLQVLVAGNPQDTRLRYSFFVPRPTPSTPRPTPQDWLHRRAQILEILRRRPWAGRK
Outline: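 Readout was dimethylmethylene blue absorbance (595 nm) of glycosaminoglycan liberated into supernatant, calibrated with whale chondroitin sulfate. Substrate was aggrecan in polyacrylamide particles, digested 15 h at 37° C in Tris-HCl; TC50 (μM) derived from inhibition relative to no-enzyme and no-inhibitor controls.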

MMP-1 = biological target: T2, MMP-1 (Homo sapiens, UniProt P03956); test: MMP-1 inhibitory action (Type I collagen Activity Measurement kit, FITC-labeled collagen type I)
T2 sequence (P03956 100-469): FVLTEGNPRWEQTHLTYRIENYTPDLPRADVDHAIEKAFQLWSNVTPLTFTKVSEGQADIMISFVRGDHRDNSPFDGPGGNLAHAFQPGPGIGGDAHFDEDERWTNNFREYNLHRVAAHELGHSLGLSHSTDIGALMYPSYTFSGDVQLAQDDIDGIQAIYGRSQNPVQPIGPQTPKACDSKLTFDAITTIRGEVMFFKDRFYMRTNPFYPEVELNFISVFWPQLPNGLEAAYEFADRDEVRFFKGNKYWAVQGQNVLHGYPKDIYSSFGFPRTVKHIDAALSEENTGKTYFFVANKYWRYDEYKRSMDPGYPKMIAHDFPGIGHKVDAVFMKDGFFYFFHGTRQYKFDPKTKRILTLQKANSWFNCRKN

Recombinant Human MMP-13 = biological target: T3, Recombinant Human MMP-13 (Homo sapiens, UniProt P45452); test: MMP-13 inhibitory activity (MMP-13 specific fluorescent substrate with quencher)
T3 construct: purchased R&D systems 511-MM
Outline: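 IC50 (μM) derived from % inhibition, normalised to wells without enzyme and without inhibitor, fluorescence read at 325/405 nm. Enzyme and compound preceded addition of the quenched 7-MCA…DPA substrate; Tris-HCl buffer, 25 °C for 1 h, acetic-acid stop.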

[1] = Experimental Example 1, read-out: IC50 AG1
[2] = Experimental Example 2, read-out: IC50 MMP1
[3] = Experimental Example 3, read-out: IC50 MMP13
[4] = aggrecanase-1 inhibitory action, read-out: IC50 AG1 (Experimental Example 1)
[5] = MMP-1 inhibitory action, FITC-labeled collagen type I, 37° C. for 3 hr, read-out: IC50 MMP1 (Experimental Example 2)
[6] = Recombinant Human MMP-13, fluorescent substrate, 25° C. for 1 h, read-out: IC50 MMP13 (Experimental Example 3)

Row | Compound | IC50 (aggrecanase-1; [1]) [nM] | IC50 (MMP-1; [2]) [nM] | IC50 (Recombinant Human MMP-13; [3]) [nM] | IC50 (aggrecanase-1; [4]) [nM] | IC50 (MMP-1; [5]) [nM] | IC50 (Recombinant Human MMP-13; [6]) [nM]
1 | O=C(O)[C@]1(NS(=O)(=O)c2ccc(-n3cc(Cl)cn3)nc2)C[C@@H]1c1ccccc1 [Example 2-554] | ≥ 1000 | ≥ 1000 | < 1000 | – | – | –
2 | C[C@]1(c2ccccc2)C[C@@]1(NS(=O)(=O)c1ccc(-c2ccc(O)c(F)c2)s1)C(=O)O [Example 2-589] | < 1000 | ≥ 1000 | ≥ 1000 | – | – | –
3 | CC1(C)COC(c2ccccc2C2CC2(NS(=O)(=O)c2ccc(-c3ccc(Cl)cc3)s2)C(=O)O)=N1 (stereo not drawn) [Example 2-77] | – | – | – | < 100 | ≥ 1000 | < 1000
4 | O=C(O)C1(NS(=O)(=O)N2CCC(Oc3ccccc3)CC2)CC1c1ccccc1 (stereo not drawn) [Example 2-143] | – | – | – | ≥ 10000 | ≥ 10000 | ≥ 1000
5 | CC1[C@H](c2ccccc2)[C@]1(NS(=O)(=O)c1ccc(-c2ccc3nsnc3c2)s1)C(=O)O (stereo partly drawn) [Example 2-497] | < 100 | ≥ 1000 | < 100 | – | – | –
6 | NC(=O)OCCC1(c2ccccc2)CC1(NS(=O)(=O)c1ccc(-c2ccc(Cl)cc2)s1)C(=O)O (stereo not drawn) [Example 2-295] | < 100 | ≥ 1000 | < 100 | – | – | –
7 | O=C(O)C1(NS(=O)(=O)c2ccc(-c3ccc(Cl)cc3)s2)C2CCc3ccccc3C21 (stereo not drawn) [Example 2-350] | < 1000 | ≥ 1000 | < 100 | – | – | –
8 | CN(C)C(=O)Cc1cccc(C2CC2(NS(=O)(=O)c2ccc(-c3ccc(Cl)cc3)s2)C(=O)O)c1 (stereo not drawn) [Example 2-189] | – | – | – | < 100 | ≥ 10000 | < 100
9 | COCC1C(c2ccccc2)C1(NS(=O)(=O)c1ccc(-c2cc(C(F)(F)F)on2)s1)C(=O)O (stereo not drawn) [Example 2-539] | < 100 | < 1000 | < 100 | – | – | –
10 | CN(C)CCC(=O)Nc1cccc(C2CC2(NS(=O)(=O)c2ccc(-c3ccc(Cl)cc3)s2)C(=O)O)c1 (stereo not drawn) [Example 2-223] | – | – | – | < 1000 | ≥ 10000 | < 1000
11 | O=C(O)[C@]1(NS(=O)(=O)c2ccc3c(c2)CN(C2CCCCC2)C3)C[C@@H]1c1ccccc1 [Example 2-166] | – | – | – | ≥ 10000 | ≥ 10000 | ≥ 10000
12 | O=C(NO)C1(NS(=O)(=O)c2ccc(-c3ccc(Cl)cc3)s2)C2CCc3ccccc3C21 (stereo not drawn) [Example 2-364] | < 1000 | < 1000 | < 100 | – | – | –
13 | CCCC(=O)NCC1(c2ccccc2)CC1(NS(=O)(=O)c1ccc(-c2ccc(Cl)cc2)s1)C(=O)O (stereo not drawn) [Example 2-377] | < 1000 | ≥ 1000 | < 1000 | – | – | –
14 | O=C(NCC1(c2ccccc2)CC1(NS(=O)(=O)c1ccc(-c2ccc(Cl)cc2)s1)C(=O)O)C1CCCCC1 (stereo not drawn) [Example 2-380] | < 1000 | ≥ 10000 | < 1000 | – | – | –
15 | O=C(OCCc1ccccc1C1CC1(NS(=O)(=O)c1ccc(-c2cc(C(F)(F)F)on2)s1)C(=O)O)N1CCOCC1 (stereo not drawn) [Example 2-242] | – | – | – | < 100 | ≥ 1000 | < 100
16 | O=C(NO)C1(NS(=O)(=O)c2ccc(-c3ccc(Cl)cc3)s2)C2Cc3ccccc3C21 (stereo not drawn) [Example 2-447] | < 1000 | < 1000 | < 100 | – | – | –
17 | COC(=O)Nc1cccc(C2CC2(NS(=O)(=O)c2ccc(-c3ccc(Cl)cc3)cc2)C(=O)O)c1 (stereo not drawn) [Example 1-41] | – | – | – | < 1000 | ≥ 1000 | < 100
18 | O=C(O)[C@]1(NS(=O)(=O)/C=C/c2cccc(C(F)(F)F)c2)C[C@@H]1c1ccccc1 [Example 2-162] | – | – | – | ≥ 10000 | ≥ 10000 | ≥ 10000
19 | COCCCC1(c2ccccc2)CC1(NS(=O)(=O)c1ccc(-c2ccc(Cl)cc2)s1)C(=O)O (stereo not drawn) [Example 2-559] | < 100 | ≥ 1000 | < 1000 | – | – | –

Row | Compound | IC50 (aggrecanase-1; [1]) [nM] | IC50 (MMP-1; [2]) [nM] | IC50 (Recombinant Human MMP-13; [3]) [nM] | IC50 (aggrecanase-1; [4]) [nM] | IC50 (MMP-1; [5]) [nM] | IC50 (Recombinant Human MMP-13; [6]) [nM]
20 | O=C(OCC1(c2ccccc2)CC1(NS(=O)(=O)c1ccc(-c2cc(C(F)(F)F)on2)s1)C(=O)O)N1CCCCC1 (stereo not drawn) [Example 2-310] | < 1000 | < 1000 | < 100 | – | – | –
21 | O=C(O)C1(NS(=O)(=O)c2ccc(-c3cc(C(F)(F)F)on3)s2)CC1(CN1CCOCC1)c1ccccc1 (stereo not drawn) [Example 2-322] | < 100 | ≥ 1000 | < 1000 | – | – | –
22 | O=C(O)C1(NS(=O)(=O)N2CCN(c3ccc(F)cc3)CC2)CC1c1ccccc1 (stereo not drawn) [Example 2-67] | – | – | – | ≥ 10000 | ≥ 10000 | < 1000
23 | O=C(O)C1(NS(=O)(=O)c2ccc(-c3ccc(Cl)cc3)s2)CC1(CSCCO)c1ccccc1 (stereo not drawn) [Example 2-345] | < 100 | ≥ 10000 | < 1000 | – | – | –
24 | C[C@]1(c2ccccc2)C[C@@]1(NS(=O)(=O)c1ccc(-c2ccc(Cl)cc2F)s1)C(=O)O [Example 2-406] | < 100 | < 1000 | < 100 | – | – | –
25 | O=C(O)C1(NS(=O)(=O)c2ccc(-c3cc(C(F)(F)F)on3)s2)CC1c1ccccc1CCO (stereo not drawn) [Example 2-240] | – | – | – | < 1000 | ≥ 1000 | < 1000
26 | O=C(O)C1(NS(=O)(=O)N2CC=C(c3ccccc3)CC2)CC1c1ccccc1 (stereo not drawn) [Example 2-148] | – | – | – | ≥ 1000 | ≥ 10000 | < 1000
27 | C[C@]1(c2ccccc2)C[C@@]1(NS(=O)(=O)c1ccc(-c2ccc(CO)c(F)c2)s1)C(=O)O [Example 2-594] | < 1000 | ≥ 1000 | < 1000 | – | – | –
28 | CC1(c2cccnc2)CC1(NS(=O)(=O)c1ccc(-c2cc(C(F)(F)F)on2)s1)C(=O)O (stereo not drawn) [Example 2-617] | < 1000 | ≥ 1000 | ≥ 1000 | – | – | –
29 | CCOC(=O)c1cc(-c2ccc(S(=O)(=O)N[C@@]3(C(=O)O)C(C)[C@@H]3c3ccccc3)s2)no1 (stereo partly drawn) [Example 2-555] | < 1000 | ≥ 1000 | < 1000 | – | – | –
30 | Cc1nnc(N2CCN(S(=O)(=O)N[C@@]3(C(=O)O)C(C)[C@@H]3c3ccccc3)CC2)s1 (stereo partly drawn) [Example 2-465] | ≥ 1000 | ≥ 10000 | ≥ 10000 | – | – | –
31 | COCCN(C)CC1(c2ccccc2)CC1(NS(=O)(=O)c1ccc(-c2cc(C(F)(F)F)on2)s1)C(=O)O (stereo not drawn) [Example 2-336] | ≥ 1000 | ≥ 10000 | ≥ 1000 | – | – | –
32 | O=C(c1cccc(C2CC2(NS(=O)(=O)c2ccc(-c3ccc(Cl)cc3)s2)C(=O)O)c1)N1CCOCC1 (stereo not drawn) [Example 2-73] | – | – | – | < 100 | ≥ 10000 | < 1000
33 | O=C(O)C1(NS(=O)(=O)c2ccc(OCc3ccc(Cl)cc3Cl)cc2)C2Cc3ccccc3C21 (stereo not drawn) [Example 2-446] | ≥ 1000 | ≥ 10000 | ≥ 1000 | – | – | –
34 | CC(C)(C)C#Cc1ccc(S(=O)(=O)N[C@@]2(C(=O)O)C[C@@H]2c2ccccc2)s1 [Example 2-132] | – | – | – | ≥ 10000 | ≥ 10000 | ≥ 10000
35 | Cc1cnc(N2CCN(S(=O)(=O)N[C@@]3(C(=O)O)C(C)[C@@H]3c3ccccc3)CC2)s1 (stereo partly drawn) [Example 2-484] | ≥ 1000 | ≥ 10000 | < 1000 | – | – | –
36 | O=C(O)[C@]1(NS(=O)(=O)c2ccc(-c3ccc(Cl)cc3)s2)C[C@@H]1c1ccccc1CO [Example 2-206] | – | – | – | < 100 | ≥ 1000 | < 100
37 | O=C(O)C1(NS(=O)(=O)c2ccc3c(c2)oc2cc(Cl)ccc23)CC1c1ccccc1 (stereo not drawn) [Example 1-122] | – | – | – | < 100 | ≥ 1000 | < 100
38 | CN1CCN(C(=O)c2ccccc2C2CC2(NS(=O)(=O)c2ccc(-c3ccc(Cl)cc3)s2)C(=O)O)CC1 (stereo not drawn) [Example 2-216] | – | – | – | < 1000 | ≥ 10000 | < 1000
